Test system: FL-SMN mRNA (SMN transcript containing exons 7 and 8)
Test: Live-cell assay to measure changes in FL-SMN mRNA levels (qPCR) after exposure to the compounds
Format: cell-based, human
Conditions: fibroblasts derived from patients SMA (GM03813); 24 hours incubation
How it was run: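 SMA patient fibroblasts (GM03813) in DMEM/10% FBS were treated with compound (0.1% DMSO final) for 24 h. FL-SMN and Δ7 mRNA were measured by RT-qPCR against oligo DNA standard curves and normalised to GAPDH. Values are % of the DMSO control, binned by asterisk from ≥100% to ≥180%.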

Cc1cn2ccc(-c3ccc4ncn(C5CCN(C)CC5)c(=O)c4c3)cc2n1 [Example 80, 6-(2-methylimidazo[1,2-a]pyridin-7-yl)-3-(1-methylpiperidin-4-yl)quinazolin-4(3H)-one]
Percentage of increase (FL-SMN mRNA standardized against GAPDH, DMSO control set as 100%): * (equal to or higher than 100% but lower than 120%)

Cc1cn2cc(-c3cc(C)c4nc(C5CCN(C)CC5)[nH]c(=O)c4c3)ccc2n1 [Example 19, 8-Methyl-6-(2-methylimidazo[1,2-α]pyridin-6-yl)-2-(1-methylpiperidin-4-yl)quinazolin-4(3H)-one]
Percentage of increase (FL-SMN mRNA standardized against GAPDH, DMSO control set as 100%): **** (equal to or higher than 180%)

Cc1cn2cc(-c3ccc4nc(C5CCOCC5)[nH]c(=O)c4c3)ccc2n1 [Example 81, 6-(2-methylimidazo[1,2-a]pyridin-6-yl)-2-(tetrahydro-2H4-pyran-4-yl)quinazolin-4(3H)-one]
Percentage of increase (FL-SMN mRNA standardized against GAPDH, DMSO control set as 100%): * (equal to or higher than 100% but lower than 120%)

Cc1cn2cc(-c3ccc4c(=O)n(C5CCN(C6CC6)CC5)cnc4c3)cc(F)c2n1 [Example 39, 3-(1-cyclopropylpiperidin-4-yl)-7-(8-fluoro-2-methylimidazo[1,2-a]pyridin-6-yl)quinazolin-4(3H)-one]
Percentage of increase (FL-SMN mRNA standardized against GAPDH, DMSO control set as 100%): *** (equal to or higher than 150% but lower than 180%)

COc1ccc(F)c(-c2nc3ccc(C4CCN(C)CC4)cc3c(=O)[nH]2)c1 [Example 49, 2-(2-fluoro-5-methoxyphenyl)-6-(1-methylpiperidin-4-yl)quinazolin-4(3H)-one]
Percentage of increase (FL-SMN mRNA standardized against GAPDH, DMSO control set as 100%): * (equal to or higher than 100% but lower than 120%)

COc1cc2nc(-c3cc4c(C)nc(C)cn4n3)[nH]c(=O)c2cc1C1CCN(C)CC1 [Example 51, 2-(4,6-dimethylpyrazolo[1,5-a]pyrazin-2-yl)-7-methoxy-6-(1-methylpiperidin-4-yl)quinazolin-4(3H)-one]
Percentage of increase (FL-SMN mRNA standardized against GAPDH, DMSO control set as 100%): * (equal to or higher than 100% but lower than 120%)

CCN1CCN(c2ccc3nc(-c4cc5c(C)nc(C)cn5n4)[nH]c(=O)c3c2)[C@H](C)C1 [Example 131, (R)-2-(4,6-dimethylpyrazolo[1,5-a]pyrazin-2-yl)-6-(4-ethyl-2-methylpiperazin-1-yl)quinazolin-4(3H)-one]
Percentage of increase (FL-SMN mRNA standardized against GAPDH, DMSO control set as 100%): *** (equal to or higher than 150% but lower than 180%)

Cc1cn2cc(-c3ccc4nc(C5CCN(C)CC5)[nH]c(=O)c4c3)cc(F)c2n1 [Example 10, 6-(8-Fluoro-2-methylimidazo[1,2-α]pyridin-6-yl)-2-(1-methylpiperidin-4-yl)quinazolin-4(3H)-one]
Percentage of increase (FL-SMN mRNA standardized against GAPDH, DMSO control set as 100%): **** (equal to or higher than 180%)

Cc1cn2cc(-c3ccc4nc(C5(F)CCN(C(C)C)CC5)[nH]c(=O)c4c3)cc(F)c2n1 [Example 91, 2-(4-fluoro-1-isopropylpiperidin-4-yl)-6-(8-fluoro-2-methylimidazo[1,2-a]pyridin-6-yl)quinazolin-4(3H)-one]
Percentage of increase (FL-SMN mRNA standardized against GAPDH, DMSO control set as 100%): **** (equal to or higher than 180%)

Reference: patent publication US12012410B2, “Substituted pyrazolo[1,5-a]pyrazines for spinal muscular atrophy” (REBORNA BIOSCIENCES, INC., priority 2018, dated 2024)
